Reference: patent US6465663B2, “O- or S-substituted tetrahydronaphthalene derivatives having retinoid and/or retinoid antagonist-like biological activity” (Allergan, Inc., priority 1996, dated 2002)
pKd: −log10 of the molar value.

Columns and labels:
RARα = target: T1, RARα (Homo sapiens, UniProt P10276); test: Ligand binding assay
T1 sequence (P10276 1-462): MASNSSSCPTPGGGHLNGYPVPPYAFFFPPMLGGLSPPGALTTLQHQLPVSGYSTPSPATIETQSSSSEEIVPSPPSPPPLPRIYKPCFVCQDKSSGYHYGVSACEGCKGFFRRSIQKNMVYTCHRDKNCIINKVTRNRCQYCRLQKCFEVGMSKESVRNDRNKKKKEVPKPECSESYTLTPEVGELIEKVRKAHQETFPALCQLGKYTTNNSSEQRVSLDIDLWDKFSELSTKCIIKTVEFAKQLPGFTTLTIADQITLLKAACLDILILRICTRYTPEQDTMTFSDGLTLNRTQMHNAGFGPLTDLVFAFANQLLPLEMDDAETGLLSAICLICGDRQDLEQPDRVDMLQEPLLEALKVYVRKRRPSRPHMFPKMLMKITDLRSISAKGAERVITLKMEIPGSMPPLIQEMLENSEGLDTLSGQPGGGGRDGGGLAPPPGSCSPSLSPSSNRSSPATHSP
Excerpt: (§1) Other assays described below, measure the ability of the compounds of the present invention to bind to, and/or activate various retinoid receptor subtypes. When in these assays a compound binds to a given receptor subtype and activates the transcription of a reporter gene through that subtype, then the compound is considered an agonist of that receptor subtype. […] In the below described assays the ability of the compounds to bind to RARα, RARβ, RARγ, RXRα, RXRβ and RXRΓ receptors, and the ability or inability of the compounds to activate transcription of a reporter gene through these receptor subtypes can be tested.
(§2) A holoreceptor transactivation assay and a ligand binding assay which measure the antagonist/agonist like activity of the compounds of the invention, or their ability to bind to the several retinoid receptor subtypes, respectively, are described in published PCT Application No. WO WO93/11755 (particularly on pages 30-33 and 37-41) published on Jun. 24, 1993, the specification of which is also incorporated herein by reference. A description of the holoreceptor transactivation assay is also provided below.
(§3) CV1 cells (5,000 cells/well) were transfected with an RAR reporter plasmid MTV-TREp-LUC (50 ng) along with one of the RAR expression vectors (10 ng) in an automated 96-well format by the calcium phosphate procedure of Heyman et al. Cell 68, 397-406, (1992). For RXRα and RXRγ transactivation assays, an RXR-responsive reporter plasmid CRBPII-tk-LUC (50 ng) along with the appropriate RXR expression vectors (10 ng) was used substantially as described by Heyman et al. above, and Allegretto et al. J. Biol. Chem. 268, 26625-26633. For RXRβ transactivation assays, an RXR-responsive reporter plasmid CPRE-tk-LUC ([…]) along with RXRβ expression vector ([…]) was used as described in above. These reporters contain DRI elements from human CRBPII and certain DRI elements from promoter, respectively. (see Mangelsdorf et al. The Retinoids: Biology, Chemistry and Medicine, pp 319-349, Raven Press Ltd., New York and Heyman et al., cited above) (1, 8). A β-galactosidase (50 ng) expression vector was used as an internal control in the transfections to normalize for variations in transfection efficiency. The cells were transfected in triplicate for 6 hours, followed by incubation with retinoids for 36 hours, and the extracts were assayed for luciferase and β-galactosidase activities. The detailed experimental procedure for holoreceptor transactivations has been described in Heyman et al. above, and Allegretto et al. cited above. The results obtained in this assay are expressed in EC50 numbers, as they are also in the chimeric receptor transactivation assay. The Heyman et al. Cell 68, 397-406, Allegretto et al. J. Biol. Chem. 268, 26625-26633, and Mangelsdorf et al. The Retinoids: Biology, Chemistry and Medicine, pp 319-349, Raven Press Ltd., New York, are expressly incorporated herein by reference. The results of ligand binding assay are expressed in Kd numbers. (See Cheng et al. Biochemical Pharmacology Vol. 22 pp 3099-3108, expressly incorporated herein by reference.)

RARβ = target: T2, RARβ (Homo sapiens, UniProt P10826); test: Ligand binding assay
T2 sequence (P10826 1-455): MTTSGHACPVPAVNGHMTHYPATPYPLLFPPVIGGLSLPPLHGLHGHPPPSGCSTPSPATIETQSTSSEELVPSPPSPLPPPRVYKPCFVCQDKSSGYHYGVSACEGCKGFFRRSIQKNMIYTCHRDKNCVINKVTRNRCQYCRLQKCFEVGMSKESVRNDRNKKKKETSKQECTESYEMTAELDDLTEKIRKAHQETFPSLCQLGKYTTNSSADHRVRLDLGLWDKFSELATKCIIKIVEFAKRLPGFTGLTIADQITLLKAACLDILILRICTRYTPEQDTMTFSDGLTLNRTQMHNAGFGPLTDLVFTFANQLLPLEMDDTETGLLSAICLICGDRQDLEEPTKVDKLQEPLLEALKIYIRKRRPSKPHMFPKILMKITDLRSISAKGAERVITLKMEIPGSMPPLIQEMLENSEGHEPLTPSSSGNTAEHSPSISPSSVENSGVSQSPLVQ
Excerpt: as §1, §2, §3

RARγ = target: T3, RARγ (Homo sapiens, UniProt P13631); test: Ligand binding assay
T3 sequence (P13631 1-454): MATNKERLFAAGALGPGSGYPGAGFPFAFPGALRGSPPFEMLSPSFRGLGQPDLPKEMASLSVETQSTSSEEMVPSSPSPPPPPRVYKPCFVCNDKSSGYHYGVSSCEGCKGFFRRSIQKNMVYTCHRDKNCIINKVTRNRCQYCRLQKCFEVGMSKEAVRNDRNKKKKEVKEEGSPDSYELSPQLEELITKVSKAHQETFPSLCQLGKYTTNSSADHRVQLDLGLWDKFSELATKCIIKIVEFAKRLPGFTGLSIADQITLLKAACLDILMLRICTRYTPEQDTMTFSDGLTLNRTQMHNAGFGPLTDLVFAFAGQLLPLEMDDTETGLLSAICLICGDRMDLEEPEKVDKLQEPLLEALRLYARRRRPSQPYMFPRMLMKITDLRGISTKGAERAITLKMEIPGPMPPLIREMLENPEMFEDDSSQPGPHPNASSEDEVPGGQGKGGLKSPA
Excerpt: as §1, §2, §3

[1] = test system: ornithine decarboxylase (ODC); test: ODC assay: inhibition of TPA induction of ornithine decarboxylase activity; format: in vivo; settings: concentration of the test compound which causes 80% inhibition in the ODC assay; cell marked (IC80)
Excerpt: A classic measure of retinoic acid activity involves measuring the effects of retinoic acid on ornithine decarboxylase. […] That reference discloses that ornithine decarboxylase (ODC) activity increased precedent to polyamine biosynthesis. It has been established elsewhere that increases in polyamine synthesis can be correlated or associated with cellular proliferation. Thus, if ODC activity could be inhibited, cell hyperproliferation could be modulated. Although all cases for ODC activity increases are unknown, it is known that 12-0-tetradecanoylphorbol-13-acetate (TPA) induces ODC activity. Retinoic acid inhibits this induction of ODC activity by TPA.

Compound | pKd (RARα) | pKd (RARβ) | pKd (RARγ) | IC80 [1]
CC1(C)CCC(OC2CCCCO2)c2cc(C(=O)Oc3ccc(C(=O)O)cc3)ccc21 (single isomer, unassigned) [Compound E67, 4-[5,6,7,8-tetrahydro-8(S or R)-(2′(S or R)tetrahydropyranoxy)-5,5-dimethyl-2-napthoyloxy]benzoic Acid] | 7.11 | 6.52 | 6.43 | 
CC1(C)CCC(=O)c2cc(/C=C/c3ccc(C(=O)O)cc3)ccc21 [Compound A2a, (E)-4-[2-(5,6,7,8-tetrahydro-5,5-dimethyl-8-oxo-2-naphthalenyl)ethenyl]-benzoic acid] | 6.82 | 6.66 | 6.38 | 
CCO/N=C1\CCC(C)(C)c2ccc(/C=C/c3ccc(C(=O)O)cc3)cc21 [Compound A6, (E)-4-[2-(5,5-Dimethyl-5,6,-dihydro-8(7H)-anti-(O-ethyl oxime)-naphthalen-2-yl)ethenyl]-benzoic acid] | 6.90 | 7.44 | 6.90 | 
CC1(C)CC=C(Sc2ccccc2)c2cc(/C=C/c3ccc(C(=O)O)cc3)ccc21 [Compound A18, (E)-4-[2-(5,6-dihydro-5,5-dimethyl-8-(phenylthio)-naphthalen-2-yl)ethenyl] benzoic acid] | 6.27 | 6.71 | 6.79 | 
CC1(C)CCC2(SCCCS2)c2cc(/C=C/c3ccc(C(=O)O)cc3)ccc21 [Compound A24] | 6.55 | 7.04 | 6.59 | 
CCC(CC)=C1CCC(C)(C)c2ccc(/C=C/c3ccc(C(=O)O)cc3)cc21 [Compound A28, (E)-4-[2-(5,6-Dihydro-5,5-dimethyl-8(7H)-(pentyliden-3-yl)-naphthalen-2-yl)ethenyl]benzoic acid] | 8.40 | 8.52 | 7.38 | 
CCO/N=C1\CCC(C)(C)c2ccc(/C(C)=C/C=C/C(C)=C/C(=O)O)cc21 [Compound C25, 7-[4,4-dimethyl-3,4-dihydro-1(2H)-anti-(O-ethyl oxime)-naphth-7-yl]3,7-dimethyl-hepta-2(E),4(E),6(E)-trienoic Acid] | 7.72 | 7.92 | 7.38 | 
CC1(C)CC=C(c2cccs2)c2ccc(C(=O)C=Cc3ccc(C(=O)O)cc3)cc21 [Compound D34, 4-[3-oxo-3-(7,8-dihydro-5-(2-thienyl)-8,8-dimethyl-2-naphthalenyl)-1-propenyl]-benzoic acid] | 6.63 | 6.70 | 6.28 | 4.3 (IC80) nmols
CC(C)=C1CCC(C)(C)c2ccc(C(=O)Oc3ccc(C(=O)O)cc3)cc21 [Compound E14] | 7.44 | 7.46 | 6.34 | 
CC(C)=C1CCC(C)(C)c2ccc(C(=O)Nc3ccc(C(=O)O)cc3)cc21 [Compound E17] | 6.72 | 6.42 | < 6.00 | 
CC1(C)CC=C(S(=O)(=O)c2ccccc2)c2cc(C(=O)Oc3ccc(C(=O)O)cc3)ccc21 [Compound E27] | 6.26 | 6.27 | < 6.00 | 
CC(C)(C)C1=CCC(C)(C)c2ccc(C(=O)Nc3ccc(C(=O)O)cc3)cc21 [Compound E80, 4-[(5,5-dimethyl-5,6-dihydro-8-(1,1-dimethylethyl)-2-naphthalenyl)carboxamido]-benzoic Acid] | 6.40 | 6.27 | 6.05 | 
